According to US20230383291A1, “PEPTIDE-BASED TRANSDUCTION OF NON-ANIONIC POLYNUCLEOTIDE ANALOGS FOR GENE EXPRESSION MODULATION” (FELDAN BIO INC., priority 2020, published 2023):

Key:
Gli1 protein [1] = experiment: Gli1 knock-down in DU145 cells, Western blot; type: cell-based, Human; conditions: 6 μM PMO
Description: DU145 cells were trypsinized and plated (500 000 cells/well) in a 24 well-dish the day prior to the experiment. […] Cells were washed once with PBS and delivery mixes were added on cells for five minutes. Then, 2 mL of RPMI-1640 containing 10% FBS was added to the mix and removed. Untreated cells were incubated with RPMI-1640 only. Cells were incubated in fresh RPMI-1640 containing 10% FBS. Forty height hours later, medium was removed and cells were washed once with PBS prior to trypsinization. Cells were harvested, collected by centrifugation, washed, and resuspended with PBS. Then, PMO-FITC positive and PMO-FITC negative cells were sorted and collected by virtue of FACS (BD FACS Aria Fusion). FITC-positive and FITC-negative cell samples were collected by centrifugation and resuspended in 50 μL protein extraction RIPA buffer (150 mM NaCl, 1% Nonidet™ P-40, 0.1% SDS, 0.5% Sodium deoxycholate, 25 mM Tris). Total protein concentrations were measured with a BCA protein assay kit. For all conditions, 10 μg of proteins were prepared at a final volume of 40 μL with 4× Laemmeli and RIPA buffer. Protein samples were then heated at 90° C. and separated through an 8% SDS-PAGE gel. Proteins were then transferred over night (25 volts) onto a […] PVDF membrane. Membranes were blocked using a 5% bovine serum albumin, Tris Buffer Saline, 0.1% Tween® 20 solution (5% BSA/TBS-T) for an hour. After blocking, the membrane was incubated for an hour with a 5% BSA/TBS-T solution containing anti alpha-Actinin (D6F6) primary antibody at a 1:1000. Alpha-Actinin protein present in the cell lysates served as loading control. Subsequently, the membranes were incubated over night with a 5% BSA/TBS-T solution containing anti-Gli1 primary antibody diluted 1:500. The membrane was then subjected to a 1-hour incubation at 1:5000 dilution of HRP-conjugated goat anti-rabbit secondary antibody 5% BSA/TBS-T solution. Chemiluminescence detection was performed using Clarity™ Western ECL Substrate and a ChemiDoc™ XRS apparatus. Gli1 and Alpha-Actinin densitometry was assessed using ImageJ™ software. […]

Gli1 protein [2] = experiment: Gli1 knockdown in RH-30 cells, Western blot; type: cell-based, Human; conditions: 6 μM cargo with 5 μM FSD250, 2 minutes, 24 h
Description: A Gli1 knock-down experiment was performed generally as described in Example 6 to compare shuttle agent-mediated transduction of an unmodified PMO versus a commercially available self-internalizing Vivo-Morpholino (VivoPMO), which is a PMO chemically modified with a terminal octa-guanidinium dendrimer to facilitate entry into cells. Briefly, RH-30 cells were contacted with a delivery mix of 6 μM of cargo (either PMO-Gli1 or VivoPMO-Gli1) in the presence or absence of 5 μM of the synthetic peptide shuttle agent FSD250 for 2 minutes in RPMI. Cells were then washed, incubated in complete medium and then collected for Gli1 protein expression analysis by Western blot after 24 h using an anti-Gli1 polyclonal Ab (Abcam ab273018, 150 kDa), an anti-GAPDH Ab (Abcam ab181602, 37 kDa), and anti-Rabbit HRP secondary Ab. […] Indeed, this is consistent with the manufacturer's recommended incubation time of 2-4 hours for VivoPMOs to achieve sufficient self-internalization via endocytosis. Regardless, the results in FIG. 10 highlight the vast difference in internalization kinetics between the slow endocytosis-dependent intracellular delivery of VivoPMOs versus the rapid and efficient PMO transduction observed using synthetic peptide shuttle agents.
Four different PMOs were designed and synthesized targeting different regions proximal to the region or start codon of the human Gli1 gene. […]

Gli1 protein [3] = experiment: Gli1 protein level in cells isolated from treated tumor explants, cytofluorometry; type: cell-based; conditions: PMO-Gli1 and shuttle agent combination; between 24 and 48 hours of incubation; data not shown
Description: Freshly obtained basal cell carcinoma-type tumors following Mohs-type surgery were incubated in complete DMEM culture medium on a wire mesh with the surface exposed to air. In order to allow the cargo to be delivered to the epidermis and dermis, the tumors were washed with PBS 1× and the stratum corneum of the explants is permeabilized with a Pantec PLEASE™ laser according to the following parameters: pore density 2.5%, 1 pulse/pore, Array Size 14 mm, depth pores 20 μm (4.9 J/cm^2, 0.8 W). The explants were then divided into two halves, one half was treated with a solution of PBS 1×-2% hydroxyethyl cellulose containing 25 μM of PMO-Gli1-Cy5 and 40 μM of FSD250, while the other half was treated with the same solution containing PMO-Gli1-cy5 only (without shuttle agent; control). […] 10 μm sections were transferred to coverslips and treated with ProLong™ Diamond for fluorescence microscopy analysis. […] The levels of Gli1 protein were measured by cytofluorometry at different times of culture following the fixation and labeling of the isolated dermal and epidermal cells with an anti Gli1-Alexa 647 antibody. Between 24 and 48 hours of incubation following the treatment of the tumors, the level of the Gli1 protein decreased considerably (50%) in cultured cells which were treated with the PMO-Gli1 and shuttle agent combination, measured by flow cytometry (data not shown).

## PMO-Gli1: antisense PMO molecule designed to knock-down expression of the Gli1 protein; off-target control in the GFPd assay (antisense GTCATCGAGTTGAACATGGCGTCTC; all phosphorodiamidate morpholino (PMO))
Gli1 protein [1]; 3.75 μM FSD250, 48 hours
  Gli1 protein expression: knocked-down
Gli1 protein [1]; FITC+ cells vs FITC− cells, 5 μM FSD250, 48 hours
  Gli1 protein expression: knocked-down
Gli1 protein [2]
  Knockdown of Gli1 protein: Knockdown of Gli1 protein
Gli1 protein [3]
  decrease of the level of the Gli1 protein: 50%
